Measurements: patent US20220193076A1, “METHODS OF TREATING BREAST CANCER WITH TUCATINIB” (Seagen Inc., priority 2019, published 2022)
Several values for one entry are separate records, joined by “and”; a condition that tells them apart may be missing. Identical values can stand only once.

Experiments:
CYP3A4 [1] = target: T1, CYP3A4 (Homo sapiens, UniProt P08684); test: Ki determination in pooled human liver microsomes, midazolam 1'-hydroxylase (Example 5); format: in vitro ADME
Description: The objective of this study was to evaluate in vitro the Ki of tucatinib of the following human hepatic cytochrome P450 (CYP) enzymes (CYP2C8, CYP2C9, and CYP3A4) and UGT1A1. […] Pooled human liver microsomes (HLM) from 150 individuals (79 males and 71 females) were obtained from BioreclamationIVT (Baltimore, Md.) and stored at approximately −70° C. The microsomes were characterized by the supplier for total protein and selected cytochrome P450 activities. […] The final organic solvent contribution was ≤1%. Incubations were terminated by the addition of chilled acetonitrile containing a stable isotope-labeled internal standard. […] Samples were analyzed by liquid chromatography with tandem mass spectrometry (LC-MS/MS). Analyte concentrations were quantified by LC-MS/MS and interpolated from standard curves of authentic analyte. […] Activities were calculated based on analyte concentration, incubation time, and protein concentration. Enzymatic activity (pmol/minute/mg protein) was expressed as the formation of the analyte per final protein concentration per incubation time. Activity remaining was expressed as the enzymatic activity at each concentration point of the test article normalized by the solvent control mean activity. […]

[2] = Example 1: renal function (iohexol aGFR, serum creatinine, urine albumin); format: in vivo, human
[3] = target: T2, organic cation transporter (OCT)2 (Homo sapiens, UniProt O15244); test: In vitro inhibition of OCT2 activity; format: in vitro ADME; conditions: read-out: 50% inhibitory concentration (IC50), OCT2
T2 sequence (O15244 1-555): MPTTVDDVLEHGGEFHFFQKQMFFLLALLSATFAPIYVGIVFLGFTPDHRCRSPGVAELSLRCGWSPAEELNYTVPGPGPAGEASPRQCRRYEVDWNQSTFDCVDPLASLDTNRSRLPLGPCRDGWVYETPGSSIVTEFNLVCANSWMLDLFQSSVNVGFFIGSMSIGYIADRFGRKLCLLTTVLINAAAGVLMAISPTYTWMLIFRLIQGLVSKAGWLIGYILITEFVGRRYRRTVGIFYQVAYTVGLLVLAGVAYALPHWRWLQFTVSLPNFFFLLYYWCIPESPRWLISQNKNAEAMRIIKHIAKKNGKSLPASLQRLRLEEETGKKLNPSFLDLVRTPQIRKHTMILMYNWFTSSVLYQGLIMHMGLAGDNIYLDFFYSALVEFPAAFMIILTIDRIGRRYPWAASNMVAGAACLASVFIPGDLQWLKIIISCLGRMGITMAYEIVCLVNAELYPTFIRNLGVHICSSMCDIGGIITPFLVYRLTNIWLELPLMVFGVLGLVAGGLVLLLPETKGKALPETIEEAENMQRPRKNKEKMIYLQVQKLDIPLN

[4] = target: T3, breast cancer resistance protein (BCRP) (Homo sapiens, UniProt Q9UNQ0); test: In vitro inhibition of BCRP activity; format: in vitro ADME
T3 sequence (Q9UNQ0 1-655): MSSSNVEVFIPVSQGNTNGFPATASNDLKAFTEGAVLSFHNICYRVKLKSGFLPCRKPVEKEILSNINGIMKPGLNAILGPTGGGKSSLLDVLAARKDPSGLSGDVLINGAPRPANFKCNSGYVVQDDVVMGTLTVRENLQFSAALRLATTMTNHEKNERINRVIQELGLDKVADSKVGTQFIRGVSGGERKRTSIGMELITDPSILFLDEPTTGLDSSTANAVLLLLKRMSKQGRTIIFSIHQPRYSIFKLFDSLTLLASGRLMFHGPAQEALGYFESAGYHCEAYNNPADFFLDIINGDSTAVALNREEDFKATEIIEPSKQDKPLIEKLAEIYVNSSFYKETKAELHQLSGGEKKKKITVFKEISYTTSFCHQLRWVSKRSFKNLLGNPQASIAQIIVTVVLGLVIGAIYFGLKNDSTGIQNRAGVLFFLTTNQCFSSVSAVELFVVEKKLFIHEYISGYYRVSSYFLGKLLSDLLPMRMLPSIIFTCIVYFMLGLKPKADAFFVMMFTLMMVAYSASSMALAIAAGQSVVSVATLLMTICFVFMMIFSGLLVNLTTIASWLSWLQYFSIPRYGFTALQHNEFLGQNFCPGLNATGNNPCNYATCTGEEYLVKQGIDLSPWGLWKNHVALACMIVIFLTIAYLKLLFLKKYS

CYP2C8 = target: T4, CYP2C8 (Homo sapiens, UniProt P10632); test: Example 2 Part C: effect of strong CYP2C8 inhibitor gemfibrozil on PK of tucatinib; format: in vivo; set-up: endogenous in cells; host or cells: healthy human subjects, in vivo; conditions: tucatinib 300 mg single dose in combination with gemfibrozil vs tucatinib alone
T4 sequence (P10632 1-490): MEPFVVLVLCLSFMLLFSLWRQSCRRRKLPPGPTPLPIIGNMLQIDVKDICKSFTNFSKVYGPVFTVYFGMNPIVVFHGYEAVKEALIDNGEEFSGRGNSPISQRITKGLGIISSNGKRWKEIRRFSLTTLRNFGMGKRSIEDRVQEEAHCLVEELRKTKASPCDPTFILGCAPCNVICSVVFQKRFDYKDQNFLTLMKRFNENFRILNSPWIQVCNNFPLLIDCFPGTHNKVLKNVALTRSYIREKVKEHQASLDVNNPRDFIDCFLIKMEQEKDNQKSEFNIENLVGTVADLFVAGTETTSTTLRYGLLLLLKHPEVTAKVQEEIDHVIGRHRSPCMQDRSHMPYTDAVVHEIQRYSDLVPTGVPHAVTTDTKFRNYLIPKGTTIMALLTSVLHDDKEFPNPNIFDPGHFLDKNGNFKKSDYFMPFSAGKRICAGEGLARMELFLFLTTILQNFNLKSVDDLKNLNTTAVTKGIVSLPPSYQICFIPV
Description: From Day 3 to Day 8, each subject received single oral doses of 600 mg of gemfibrozil (BID), twice daily (BID). On Day 7, each subject received a single oral dose of 300 mg of tucatinib. […] Other noncompartmental PK parameters may be reported. Additionally, blood samples were collected for determination of trough levels of gemfibrozil prior to morning dosing on the days indicated in FIG. 7.

CYP1A2 = test: In vitro enzyme activity / mRNA induction in human hepatocytes; format: in vitro ADME
[5] = target: bile salt export pump (BSEP) (Homo sapiens, UniProt O95342); test: In vitro inhibition of BSEP activity; format: in vitro ADME
Chain of bile salt export pump (BSEP) (O95342 whole entry, species assumed): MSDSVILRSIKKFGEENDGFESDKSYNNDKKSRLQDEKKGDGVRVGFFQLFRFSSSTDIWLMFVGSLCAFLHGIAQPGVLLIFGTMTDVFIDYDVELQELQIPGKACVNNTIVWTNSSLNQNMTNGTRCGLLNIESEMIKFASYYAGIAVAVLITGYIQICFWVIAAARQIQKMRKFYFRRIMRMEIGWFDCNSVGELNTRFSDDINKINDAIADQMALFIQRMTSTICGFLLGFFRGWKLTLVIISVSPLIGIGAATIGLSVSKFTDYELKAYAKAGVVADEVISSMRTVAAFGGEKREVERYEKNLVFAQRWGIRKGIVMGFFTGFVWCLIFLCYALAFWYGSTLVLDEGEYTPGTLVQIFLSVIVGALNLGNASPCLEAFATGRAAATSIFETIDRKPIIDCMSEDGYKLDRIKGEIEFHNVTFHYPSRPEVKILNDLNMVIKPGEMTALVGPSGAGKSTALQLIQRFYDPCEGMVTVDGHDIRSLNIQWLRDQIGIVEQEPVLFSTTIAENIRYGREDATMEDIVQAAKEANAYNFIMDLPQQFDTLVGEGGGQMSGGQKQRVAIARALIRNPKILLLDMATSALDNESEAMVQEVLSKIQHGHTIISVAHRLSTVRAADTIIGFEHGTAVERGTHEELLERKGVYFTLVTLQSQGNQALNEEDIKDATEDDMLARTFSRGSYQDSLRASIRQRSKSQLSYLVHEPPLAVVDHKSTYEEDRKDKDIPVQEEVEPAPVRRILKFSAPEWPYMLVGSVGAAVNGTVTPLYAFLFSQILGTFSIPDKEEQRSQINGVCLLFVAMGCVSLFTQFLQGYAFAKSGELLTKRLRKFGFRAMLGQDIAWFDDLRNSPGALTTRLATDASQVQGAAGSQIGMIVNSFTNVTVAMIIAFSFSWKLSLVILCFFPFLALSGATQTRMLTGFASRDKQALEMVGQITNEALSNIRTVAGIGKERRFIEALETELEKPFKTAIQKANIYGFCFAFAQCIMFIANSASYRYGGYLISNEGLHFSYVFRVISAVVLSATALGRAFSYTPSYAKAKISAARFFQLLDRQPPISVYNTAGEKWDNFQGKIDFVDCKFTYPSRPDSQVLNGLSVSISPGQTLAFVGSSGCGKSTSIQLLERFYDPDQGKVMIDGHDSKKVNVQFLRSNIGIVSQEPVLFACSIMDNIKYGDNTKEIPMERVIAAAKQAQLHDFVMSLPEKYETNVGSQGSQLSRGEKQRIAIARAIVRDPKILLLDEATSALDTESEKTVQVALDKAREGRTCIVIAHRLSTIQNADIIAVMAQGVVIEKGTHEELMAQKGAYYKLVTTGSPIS

CYP3A4 [6] = target: T1, CYP3A4; test: In vitro time-dependent inhibition of CYP3A4 (background statement); format: in vitro ADME
[7] = following multiple doses of tucatinib

T1 sequence (P08684 whole entry): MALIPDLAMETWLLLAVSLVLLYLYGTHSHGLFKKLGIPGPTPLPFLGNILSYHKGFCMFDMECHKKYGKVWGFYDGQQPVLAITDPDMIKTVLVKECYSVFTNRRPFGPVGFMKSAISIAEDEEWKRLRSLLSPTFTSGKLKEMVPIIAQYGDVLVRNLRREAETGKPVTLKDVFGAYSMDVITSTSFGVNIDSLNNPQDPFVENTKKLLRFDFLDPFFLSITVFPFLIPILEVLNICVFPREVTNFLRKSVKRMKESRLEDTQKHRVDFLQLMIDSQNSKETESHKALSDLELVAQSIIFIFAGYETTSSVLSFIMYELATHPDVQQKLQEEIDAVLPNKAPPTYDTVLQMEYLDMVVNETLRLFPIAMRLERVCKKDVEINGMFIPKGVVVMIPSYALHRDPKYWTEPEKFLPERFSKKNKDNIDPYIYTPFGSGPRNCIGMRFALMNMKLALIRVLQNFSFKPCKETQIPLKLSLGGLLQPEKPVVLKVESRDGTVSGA

For Cc1cc(Nc2ncnc3ccc(NC4=NC(C)(C)CO4)cc23)ccc1Oc1ccn2ncnc2c1 [tucatinib], the “Inhibition mechanism, CYP3A4” value (CYP3A4 [1]) was “competitive inhibition”, the Ki (CYP3A4 [1]; marker substrate midazolam) was 0.81 µM and 0.805 µM and the Renal damage ([2]; conclusion of Example 1) was “does not cause renal damage”. The “Change in mean serum creatinine” value [2, 7] was “increase”, the “Measures of renal function including aGFR as assessed by iohexol and urine albumin levels” value [2, 7] was “not affected” and the IC50 [3] was 14.7 µM. For the same compound, the IC50 [4] was 8.98 µM, the “Geometric LS mean ratio (90% CI), AUC0-∞” value (CYP2C8) was 3.04 (2.66, 3.46) and the “Geometric LS mean ratio (90% CI), AUClast” value (CYP2C8) was 2.99 (2.62, 3.41). For the same compound, the “Geometric LS mean ratio (90% CI), Cmax” value (CYP2C8) was 1.62 (1.47, 1.79), the “Induction of in vitro enzyme activity or messenger ribonucleic acid, CYP1A2” value (CYP1A2) was “did not induce” and the IC50 [5] was 8.48 µM. For the same compound, the “Time-dependent inhibition of CYP3A4” value (CYP3A4 [6]) was “no time-dependent inhibition”.
